“And” between values parts separate entries of the source, which are not always exact repeats. Identical values can stand only once.
Tests used:
[1] = tested on: Zygosaccharomyces rouxii strain, Y-229, and Torulaspora delbruckii strain, Y-866; test: yeast challenge in dark chocolate sauce, yeast enumeration; format: cell-based
Description: (§1) The treatments were prepared by dissolving the spray dried fermentate in 15 ml sterile water and then mixed into the sauce using sterile hand whisks. One of the L. reuteri fermentate treatments was incubated for 30 minutes in a water bath set at 60° C. prior to addition to the chocolate sauce to determine how heat would affect the treatment since traditional manufacturing of the chocolate sauce includes a heating step.
(§2) All jars were then inoculated with a dual yeast challenge of Zygosaccharomyces rouxii strain, Y-229, and Torulaspora delbruckii strain, Y-866, which were both obtained from the ARS NRRL Culture Collection. The yeast strains were grown in Potato Dextrose broth at 32° C. overnight, then diluted in sterile water to approximately 2.0×10^5 CFU/ml. The two strains were then combined and 5 ml of the combination culture was added to each jar to provide a challenge dose of approximately 1.0×10^3 CFU/ml.
(§3) A 10-gram sample was removed from each jar immediately after challenge inoculation to analyze the pH and the initial yeast count in duplicate on Potato Dextrose Agar acidified with 10% Tartaric Acid (PDA4-TA) as well as the total aerobic plate count (APC) in duplicate on Tryptic Soy Agar (TSA). Once solidified, the PDA+TA plates were incubated at 28° C. for 72 hours and the TSA plates were incubated at 32° C. for 48 hours, then counted to determine CFU/g. The jars were kept at room temperature (˜20-22° C.) in a dark cabinet for the first 21 days, then moved to an incubator set at 28° C. for the duration of the study. On days 4, 7, 11, 14, 18, 21, 28, 35, 49, 56, 63, 94, 109, and 124, a 10-gram sample was removed from each jar to analyze the change in pH, as well as the yeast and APC levels in duplicate as described above.

[2] = tested on: total aerobic plate count (APC); test: total aerobic plate count (APC) in dark chocolate sauce; format: cell-based
Description: as §1, §2, §3

## C/C=C/C=C/C(=O)[O-].[K+] [Potassium sorbate]
[1]; dark chocolate sauce
  day at which resurgence of yeast started: 49 days
  day at which yeast levels were no longer detectable (<10 CFU/g): 35 days
[1]; day 0
  Enumeration of yeast in dark chocolate sauce, AVG: 2.00E+03 CFU/g
  Enumeration of yeast in dark chocolate sauce, duplicate counts: 1.73E+03 CFU/g and 2.27E+03 CFU/g
[1]; day 4
  Enumeration of yeast in dark chocolate sauce, AVG: 1.23E+03 CFU/g
  Enumeration of yeast in dark chocolate sauce, duplicate counts: 9.49E+02 CFU/g and 1.51E+03 CFU/g
[1]; day 7
  Enumeration of yeast in dark chocolate sauce, AVG: 9.08E+02 CFU/g
  Enumeration of yeast in dark chocolate sauce, duplicate counts: 6.43E+02 CFU/g and 1.17E+03 CFU/g
[1]; day 11
  Enumeration of yeast in dark chocolate sauce, AVG: 1.02E+03 CFU/g
  Enumeration of yeast in dark chocolate sauce, duplicate counts: 1.10E+03 CFU/g and 9.43E+02 CFU/g
[1]; day 14
  Enumeration of yeast in dark chocolate sauce, AVG: 5.48E-02 CFU/g
  Enumeration of yeast in dark chocolate sauce, duplicate counts: 4.99E+02 CFU/g and 5.98E+02 CFU/g
[1]; day 18
  Enumeration of yeast in dark chocolate sauce, AVG: 3.30E+02 CFU/g
[1]; day 21
  Enumeration of yeast in dark chocolate sauce, AVG: 2.06E+02 CFU/g
[1]; day 28
  Enumeration of yeast in dark chocolate sauce, AVG: 1.26E+02 CFU/g
  Enumeration of yeast in dark chocolate sauce, duplicate counts: 1.51E+02 CFU/g and 1.00E+02 CFU/g
[1]; day 35
  Enumeration of yeast in dark chocolate sauce, AVG: <10 CFU/g
  Enumeration of yeast in dark chocolate sauce, duplicate counts: <10 CFU/g
[1]; day 49
  Enumeration of yeast in dark chocolate sauce, AVG: 1.53E+01 CFU/g
[1]; day 56
  Enumeration of yeast in dark chocolate sauce, AVG: <10 CFU/g
  Enumeration of yeast in dark chocolate sauce, duplicate counts: <10 CFU/g
[1]; day 63
  Enumeration of yeast in dark chocolate sauce, AVG: <10 CFU/g
  Enumeration of yeast in dark chocolate sauce, duplicate counts: <10 CFU/g
[1]; day 94
  Enumeration of yeast in dark chocolate sauce, AVG: 3.71E+02 CFU/g
  Enumeration of yeast in dark chocolate sauce, duplicate counts: 3.07E+02 CFU/g and 4.35E+02 CFU/g
[1]; day 109
  Enumeration of yeast in dark chocolate sauce, AVG: 1.50E+02 CFU/g
[1]; day 124
  Enumeration of yeast in dark chocolate sauce, AVG: 1.21E+04 CFU/g
  Enumeration of yeast in dark chocolate sauce, duplicate counts: 1.25E+04 CFU/g and 1.17E+04 CFU/g
[2]; day 0
  APC, CFU/g (duplicate counts): 2.83E+03 CFU/g and 2.94E+03 CFU/g
[2]; day 0, average of duplicate counts
  APC, AVG: 2.89E+03 CFU/g
[2]; day 4
  APC, CFU/g (duplicate counts): 2.57E+03 CFU/g and 2.96E+03 CFU/g
[2]; day 4, average of duplicate counts
  APC, AVG: 2.77E+03 CFU/g
[2]; day 7
  APC, CFU/g (duplicate counts): 2.47E+03 CFU/g and 3.12E+03 CFU/g
[2]; day 7, average of duplicate counts
  APC, AVG: 2.79E+03 CFU/g
[2]; day 11
  APC, CFU/g (duplicate counts): 2.24E+03 CFU/g and 2.49E+03 CFU/g
[2]; day 11, average of duplicate counts
  APC, AVG: 2.36E+03 CFU/g
[2]; day 14
  APC, CFU/g (duplicate counts): 1.59E+03 CFU/g and 2.13E+03 CFU/g
[2]; day 14, average of duplicate counts
  APC, AVG: 1.86E+03 CFU/g
[2]; day 18
  APC, CFU/g (duplicate counts): 1.44E+03 CFU/g and 1.56E+03 CFU/g
[2]; day 18, average of duplicate counts
  APC, AVG: 1.50E+03 CFU/g
[2]; day 21
  APC, CFU/g (duplicate counts): 1.13E+03 CFU/g and 1.31E+03 CFU/g
[2]; day 21, average of duplicate counts
  APC, AVG: 1.22E+03 CFU/g
[2]; day 28
  APC, CFU/g (duplicate counts): 8.53E+02 CFU/g and 9.84E+02 CFU/g
[2]; day 28, average of duplicate counts
  APC, AVG: 9.19E+02 CFU/g
[2]; day 35
  APC, CFU/g (duplicate counts): 7.22E+02 CFU/g and 6.82E+02 CFU/g
[2]; day 35, average of duplicate counts
  APC, AVG: 7.02E+02 CFU/g
[2]; day 49
  APC, CFU/g (duplicate counts): 6.85E+02 CFU/g and 6.14E+02 CFU/g
[2]; day 49, average of duplicate counts
  APC, AVG: 6.50E+02 CFU/g
[2]; day 56
  APC, CFU/g (duplicate counts): 5.72E+02 CFU/g and 3.71E+02 CFU/g
[2]; day 56, average of duplicate counts
  APC, AVG: 4.71E+02 CFU/g
[2]; day 63
  APC, CFU/g (duplicate counts): 5.89E+02 CFU/g and 6.79E+02 CFU/g
[2]; day 63, average of duplicate counts
  APC, AVG: 6.34E+02 CFU/g
[2]; day 94
  APC, CFU/g (duplicate counts): 5.54E+02 CFU/g and 7.62E+02 CFU/g
[2]; day 94, average of duplicate counts
  APC, AVG: 6.58E+02 CFU/g
[2]; day 109
  APC, CFU/g (duplicate counts): 6.36E+02 CFU/g and 5.52E+02 CFU/g
[2]; day 109, average of duplicate counts
  APC, AVG: 5.94E+02 CFU/g
[2]; day 124
  APC, CFU/g (duplicate counts): 2.52E+02 CFU/g and 3.78E+02 CFU/g
[2]; day 124, average of duplicate counts
  APC, AVG: 3.15E+02 CFU/g
